target: Rho-associated protein kinase 1 (Homo sapiens, UniProt Q13464); assay: Inhibition of human recombinant ROCK1; details: not given
Sequence (Q13464 whole entry): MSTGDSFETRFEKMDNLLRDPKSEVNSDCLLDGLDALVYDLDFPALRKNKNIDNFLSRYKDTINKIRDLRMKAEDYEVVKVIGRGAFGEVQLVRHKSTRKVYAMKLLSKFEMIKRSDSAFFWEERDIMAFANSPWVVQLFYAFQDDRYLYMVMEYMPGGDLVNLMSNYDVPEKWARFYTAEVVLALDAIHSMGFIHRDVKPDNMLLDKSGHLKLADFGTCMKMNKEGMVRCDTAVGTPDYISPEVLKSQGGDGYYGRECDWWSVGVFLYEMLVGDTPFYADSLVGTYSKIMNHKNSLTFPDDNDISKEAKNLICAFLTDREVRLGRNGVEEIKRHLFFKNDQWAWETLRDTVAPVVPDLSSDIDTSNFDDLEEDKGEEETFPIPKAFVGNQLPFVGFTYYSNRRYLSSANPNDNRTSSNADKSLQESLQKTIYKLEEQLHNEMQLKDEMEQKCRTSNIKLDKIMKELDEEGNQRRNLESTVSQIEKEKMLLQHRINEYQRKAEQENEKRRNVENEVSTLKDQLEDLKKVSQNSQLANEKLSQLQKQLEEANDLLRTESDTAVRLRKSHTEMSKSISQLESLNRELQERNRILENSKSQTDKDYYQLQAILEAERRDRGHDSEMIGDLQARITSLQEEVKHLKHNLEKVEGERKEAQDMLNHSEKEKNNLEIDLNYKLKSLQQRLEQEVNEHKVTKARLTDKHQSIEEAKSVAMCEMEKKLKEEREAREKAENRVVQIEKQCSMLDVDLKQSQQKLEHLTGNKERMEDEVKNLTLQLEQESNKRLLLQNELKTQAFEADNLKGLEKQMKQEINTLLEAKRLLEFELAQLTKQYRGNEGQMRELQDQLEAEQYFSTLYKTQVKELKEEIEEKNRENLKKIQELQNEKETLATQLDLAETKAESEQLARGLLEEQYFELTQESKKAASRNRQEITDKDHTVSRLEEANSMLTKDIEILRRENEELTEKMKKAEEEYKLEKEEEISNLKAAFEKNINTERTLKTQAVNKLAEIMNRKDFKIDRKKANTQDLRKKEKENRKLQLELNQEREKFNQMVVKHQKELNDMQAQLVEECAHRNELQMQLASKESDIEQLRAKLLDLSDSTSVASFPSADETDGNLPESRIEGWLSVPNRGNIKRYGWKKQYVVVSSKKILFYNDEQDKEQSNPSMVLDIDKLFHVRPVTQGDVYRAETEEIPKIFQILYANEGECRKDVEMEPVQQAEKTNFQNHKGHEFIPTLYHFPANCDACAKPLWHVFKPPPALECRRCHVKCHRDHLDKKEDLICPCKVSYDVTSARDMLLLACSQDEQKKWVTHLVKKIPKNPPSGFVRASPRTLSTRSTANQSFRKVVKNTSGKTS

For `CNCC1CCN(c2nc(-c3ccncc3)cnc2N2CCCC2)CC1`, which IC50 is on record?
The IC50 was 150 nM.

Which IC50 does the source give for `Nc1ncc(-c2ccncc2)nc1N1CCN(CCO)CC1` here?
The IC50 was 4600 nM.

With `CCN(CC)c1ncc(-c2ccncc2)nc1N1CCCN(C)CC1` as the molecule, how does the IC50 read?
The IC50 was 2600 nM.

Which IC50 does the source give for `c1cc(-c2cnc(N3CCCC3)c(N3CCCNCC3)n2)c2cc[nH]c2n1` here?
Its IC50 is 170 nM.

For `CN1CCCN(c2nc(-c3ccnc4[nH]ccc34)cnc2N)CC1`, which IC50 is on record?
The IC50 was 1500 nM.

With `OCCN1CCN(c2nc(-c3ccncc3)cnc2N2CCCC2)CC1` as the molecule, how does the IC50 read?
Its IC50 is 300 nM.

For `Cc1cc(-c2cnc(N)c(N3CCCN(C)CC3)n2)ccn1`, which IC50 is on record?
The IC50 was greater than 100000 nM.

For `CN1CCCN(c2nc(-c3ccncc3)cnc2N(C)C)CC1`, which IC50 is on record?
Its IC50 is 6500 nM.

For `NC1CCN(c2nc(-c3ccncc3)cnc2N2CCCC2)CC1`, which IC50 is on record?
The IC50 was 290 nM.

For `CNc1ncc(-c2ccncc2)nc1N1CCCN(C)CC1`, which IC50 is on record?
Its IC50 is 6900 nM.

With `CNC1CCN(c2nc(-c3ccncc3)cnc2N2CCCC2)CC1` as the molecule, how does the IC50 read?
Its IC50 is 1800 nM.

With `CN1CCCN(c2nc(-c3ccncc3)cnc2N2CCCC2)CC1` as the molecule, how does the IC50 read?
Its IC50 is 6000 nM.

For `CN1CCCN(c2nc(-c3ccc4cn[nH]c4c3)cnc2N)CC1`, which IC50 is on record?
Its IC50 is greater than 10000 nM.

With `CN1CCCN(c2nc(-c3ccncc3)cnc2N2CCOCC2)CC1` as the molecule, how does the IC50 read?
The IC50 was 68000 nM.

For `COCCN(C)c1ncc(-c2ccncc2)nc1N1CCCN(C)CC1`, which IC50 is on record?
Its IC50 is 48000 nM.

For `CN(C)c1ncc(-c2ccncc2)nc1N1CCN(CCO)CC1`, which IC50 is on record?
Its IC50 is 1400 nM.

Which IC50 does the source give for `CN1CCCN(c2nc(-c3cc[nH]n3)cnc2N)CC1` here?
The IC50 was 37000 nM.

Which IC50 does the source give for `CN1CCCN(c2nc(-c3ccncc3)cnc2N)CC1` here?
Its IC50 is 4600 nM.

With `COCCNc1ncc(-c2ccncc2)nc1N1CCCN(C)CC1` as the molecule, how does the IC50 read?
The IC50 was 10000 nM.

With `CN1CCCN(c2nc(-c3ccncc3)cnc2N2CCCCC2)CC1` as the molecule, how does the IC50 read?
Its IC50 is 18000 nM.

Which IC50 does the source give for `CN1CCCN(c2nc(-c3ccnc(N)c3)cnc2N)CC1` here?
Its IC50 is 25000 nM.

Which IC50 does the source give for `CN1CCCN(c2nc(-c3ccncc3)cnc2NCCO)CC1` here?
Its IC50 is 42000 nM.

Which IC50 does the source give for `CN1CCCN(c2nc(-c3cccc4[nH]ncc34)cnc2N)CC1` here?
Its IC50 is 9600 nM.

For `c1cc(-c2cnc(N3CCCC3)c(N3CCNCC3)n2)c2cc[nH]c2n1`, which IC50 is on record?
The IC50 was 34 nM.

With `NCC1CCN(c2nc(-c3ccncc3)cnc2N2CCCC2)CC1` as the molecule, how does the IC50 read?
Its IC50 is 130 nM.

For `c1cc(-c2cnc(N3CCCC3)c(N3CCNCC3)n2)ccn1`, which IC50 is on record?
Its IC50 is 610 nM.

With `CN1CCCN(c2nc(-c3ccc4[nH]ncc4c3)cnc2N)CC1` as the molecule, how does the IC50 read?
The IC50 was 2300 nM.

Which IC50 does the source give for `c1cc(-c2cnc(N3CCCC3)c(N3CCCNCC3)n2)ccn1` here?
The IC50 was 320 nM.

Which IC50 does the source give for `Cc1cnccc1-c1cnc(N)c(N2CCCN(C)CC2)n1` here?
The IC50 was 120000 nM.

Which IC50 does the source give for `NC1CCN(c2nc(-c3ccnc4[nH]ccc34)cnc2N2CCCC2)CC1` here?
The IC50 was 300 nM.

target: Rho-associated protein kinase 2 (Homo sapiens, UniProt O75116); assay: Inhibition of human recombinant ROCK2; details: not given
Sequence (O75116 whole entry): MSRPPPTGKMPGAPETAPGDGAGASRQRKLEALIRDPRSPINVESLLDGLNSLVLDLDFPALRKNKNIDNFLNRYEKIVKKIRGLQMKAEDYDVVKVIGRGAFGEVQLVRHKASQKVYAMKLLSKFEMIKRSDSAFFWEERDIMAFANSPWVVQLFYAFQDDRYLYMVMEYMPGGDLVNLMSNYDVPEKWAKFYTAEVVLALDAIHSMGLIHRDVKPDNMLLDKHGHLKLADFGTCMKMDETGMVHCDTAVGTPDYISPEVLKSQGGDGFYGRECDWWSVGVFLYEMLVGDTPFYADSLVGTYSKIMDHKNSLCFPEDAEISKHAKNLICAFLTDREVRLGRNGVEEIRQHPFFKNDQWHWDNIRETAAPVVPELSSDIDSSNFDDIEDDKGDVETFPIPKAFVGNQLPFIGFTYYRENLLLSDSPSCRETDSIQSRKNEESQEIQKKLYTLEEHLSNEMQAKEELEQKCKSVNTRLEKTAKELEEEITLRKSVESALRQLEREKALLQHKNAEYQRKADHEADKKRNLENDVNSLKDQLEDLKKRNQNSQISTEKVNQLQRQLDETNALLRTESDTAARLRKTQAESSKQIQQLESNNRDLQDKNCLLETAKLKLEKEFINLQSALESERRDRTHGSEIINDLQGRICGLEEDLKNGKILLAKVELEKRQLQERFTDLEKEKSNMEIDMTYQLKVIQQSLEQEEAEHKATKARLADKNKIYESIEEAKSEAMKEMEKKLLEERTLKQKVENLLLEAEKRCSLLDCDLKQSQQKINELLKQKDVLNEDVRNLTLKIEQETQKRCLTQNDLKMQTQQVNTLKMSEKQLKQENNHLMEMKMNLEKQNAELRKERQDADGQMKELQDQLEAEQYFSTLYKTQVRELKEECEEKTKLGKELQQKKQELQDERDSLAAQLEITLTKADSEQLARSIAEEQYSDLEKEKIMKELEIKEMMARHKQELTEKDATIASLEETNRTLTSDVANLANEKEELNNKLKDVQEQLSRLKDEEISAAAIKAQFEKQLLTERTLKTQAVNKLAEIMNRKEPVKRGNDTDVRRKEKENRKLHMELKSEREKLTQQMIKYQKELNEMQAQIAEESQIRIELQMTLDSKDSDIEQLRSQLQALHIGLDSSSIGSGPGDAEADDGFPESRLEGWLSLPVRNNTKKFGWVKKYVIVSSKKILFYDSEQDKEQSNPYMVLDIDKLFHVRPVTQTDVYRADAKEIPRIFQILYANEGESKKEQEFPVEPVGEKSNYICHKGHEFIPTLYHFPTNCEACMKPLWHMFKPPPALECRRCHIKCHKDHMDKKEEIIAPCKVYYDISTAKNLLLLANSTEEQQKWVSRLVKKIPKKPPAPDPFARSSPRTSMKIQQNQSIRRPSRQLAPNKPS

With `CNCC1CCN(c2nc(-c3ccncc3)cnc2N2CCCC2)CC1` as the molecule, how does the IC50 read?
The IC50 was 49 nM.

For `Nc1ncc(-c2ccncc2)nc1N1CCN(CCO)CC1`, which IC50 is on record?
Its IC50 is 2500 nM.

With `CCN(CC)c1ncc(-c2ccncc2)nc1N1CCCN(C)CC1` as the molecule, how does the IC50 read?
Its IC50 is 6700 nM.

For `CN1CCCN(c2nc(-c3ccnc4[nH]ccc34)cnc2N)CC1`, which IC50 is on record?
Its IC50 is 530 nM.

With `OCCN1CCN(c2nc(-c3ccncc3)cnc2N2CCCC2)CC1` as the molecule, how does the IC50 read?
The IC50 was 78 nM.

Which IC50 does the source give for `Cc1cc(-c2cnc(N)c(N3CCCN(C)CC3)n2)ccn1` here?
Its IC50 is greater than 100000 nM.

With `CN1CCCN(c2nc(-c3ccncc3)cnc2N(C)C)CC1` as the molecule, how does the IC50 read?
Its IC50 is 1700 nM.

For `NC1CCN(c2nc(-c3ccncc3)cnc2N2CCCC2)CC1`, which IC50 is on record?
Its IC50 is 62 nM.

Which IC50 does the source give for `CNc1ncc(-c2ccncc2)nc1N1CCCN(C)CC1` here?
Its IC50 is 2400 nM.

Which IC50 does the source give for `CNC1CCN(c2nc(-c3ccncc3)cnc2N2CCCC2)CC1` here?
The IC50 was 250 nM.

For `CN1CCCN(c2nc(-c3ccncc3)cnc2N2CCCC2)CC1`, which IC50 is on record?
Its IC50 is 330 nM.

Which IC50 does the source give for `CN1CCCN(c2nc(-c3ccc4cn[nH]c4c3)cnc2N)CC1` here?
The IC50 was greater than 10000 nM.

With `CN1CCCN(c2nc(-c3ccncc3)cnc2N2CCOCC2)CC1` as the molecule, how does the IC50 read?
The IC50 was 6300 nM.

For `COCCN(C)c1ncc(-c2ccncc2)nc1N1CCCN(C)CC1`, which IC50 is on record?
Its IC50 is 45000 nM.

For `CN(C)c1ncc(-c2ccncc2)nc1N1CCN(CCO)CC1`, which IC50 is on record?
Its IC50 is 300 nM.

For `CN1CCCN(c2nc(-c3cc[nH]n3)cnc2N)CC1`, which IC50 is on record?
The IC50 was 2900 nM.

With `CN1CCCN(c2nc(-c3ccncc3)cnc2N)CC1` as the molecule, how does the IC50 read?
The IC50 was 2500 nM.

Which IC50 does the source give for `COCCNc1ncc(-c2ccncc2)nc1N1CCCN(C)CC1` here?
Its IC50 is 52000 nM.

For `CN1CCCN(c2nc(-c3ccncc3)cnc2N2CCCCC2)CC1`, which IC50 is on record?
The IC50 was 560 nM.

For `CN1CCCN(c2nc(-c3ccnc(N)c3)cnc2N)CC1`, which IC50 is on record?
Its IC50 is 53000 nM.

For `CN1CCCN(c2nc(-c3ccncc3)cnc2NCCO)CC1`, which IC50 is on record?
Its IC50 is 3000 nM.

For `CN1CCCN(c2nc(-c3cccc4[nH]ncc34)cnc2N)CC1`, which IC50 is on record?
Its IC50 is 2500 nM.

For `c1cc(-c2cnc(N3CCCC3)c(N3CCNCC3)n2)c2cc[nH]c2n1`, which IC50 is on record?
The IC50 was 17 nM.

For `NCC1CCN(c2nc(-c3ccncc3)cnc2N2CCCC2)CC1`, which IC50 is on record?
Its IC50 is 28 nM.

With `c1cc(-c2cnc(N3CCCC3)c(N3CCNCC3)n2)ccn1` as the molecule, how does the IC50 read?
The IC50 was 62 nM.

With `CN1CCCN(c2nc(-c3ccc4[nH]ncc4c3)cnc2N)CC1` as the molecule, how does the IC50 read?
Its IC50 is 950 nM.

For `c1cc(-c2cnc(N3CCCC3)c(N3CCCNCC3)n2)ccn1`, which IC50 is on record?
The IC50 was 39 nM.

For `Cc1cnccc1-c1cnc(N)c(N2CCCN(C)CC2)n1`, which IC50 is on record?
The IC50 was 58000 nM.

With `NC1CCN(c2nc(-c3ccnc4[nH]ccc34)cnc2N2CCCC2)CC1` as the molecule, how does the IC50 read?
The IC50 was 89 nM.

target: T1, Cytochrome P450 1A2 (Homo sapiens, UniProt P05177); assay: Inhibition of CYP1A2; assay type: ADME; details: not given
T1 sequence (P05177 whole entry): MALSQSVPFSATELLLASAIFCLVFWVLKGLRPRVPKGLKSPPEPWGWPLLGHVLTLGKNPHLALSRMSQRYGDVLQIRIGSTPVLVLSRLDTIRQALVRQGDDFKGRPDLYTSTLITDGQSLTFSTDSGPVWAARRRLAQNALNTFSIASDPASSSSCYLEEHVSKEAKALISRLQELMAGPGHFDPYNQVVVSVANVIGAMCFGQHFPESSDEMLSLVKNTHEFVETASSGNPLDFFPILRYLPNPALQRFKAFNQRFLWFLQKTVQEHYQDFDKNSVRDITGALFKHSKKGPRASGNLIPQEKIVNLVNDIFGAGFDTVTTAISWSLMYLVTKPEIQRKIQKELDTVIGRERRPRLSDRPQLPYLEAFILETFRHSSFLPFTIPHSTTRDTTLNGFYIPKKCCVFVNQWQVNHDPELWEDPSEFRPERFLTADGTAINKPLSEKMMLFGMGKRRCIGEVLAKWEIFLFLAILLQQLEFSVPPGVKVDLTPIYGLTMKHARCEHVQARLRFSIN

With `OCCN1CCN(c2nc(-c3ccncc3)cnc2N2CCCC2)CC1` as the molecule, how does the Activity read?
The Activity was greater than 2 µM.

target: T2, Cytochrome P450 2B6 (Homo sapiens, UniProt P20813); assay: Inhibition of CYP2B6; assay type: ADME; details: not given
T2 sequence (P20813 whole entry): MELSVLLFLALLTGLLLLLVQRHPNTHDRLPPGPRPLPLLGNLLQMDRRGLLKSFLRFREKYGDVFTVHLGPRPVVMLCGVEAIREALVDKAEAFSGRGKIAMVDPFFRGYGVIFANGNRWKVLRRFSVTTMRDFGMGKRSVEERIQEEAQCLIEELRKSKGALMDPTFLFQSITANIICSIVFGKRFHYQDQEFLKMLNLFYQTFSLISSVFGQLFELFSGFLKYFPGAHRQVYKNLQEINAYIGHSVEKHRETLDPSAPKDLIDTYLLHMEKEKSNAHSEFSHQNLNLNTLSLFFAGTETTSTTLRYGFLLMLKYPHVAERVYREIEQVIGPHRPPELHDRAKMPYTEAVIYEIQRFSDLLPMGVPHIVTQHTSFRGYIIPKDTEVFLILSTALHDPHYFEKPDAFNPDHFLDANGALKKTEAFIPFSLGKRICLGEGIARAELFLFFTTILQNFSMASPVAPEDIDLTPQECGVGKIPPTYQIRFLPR

For `OCCN1CCN(c2nc(-c3ccncc3)cnc2N2CCCC2)CC1`, which Activity is on record?
The Activity was greater than 2 µM.

target: T3, Cytochrome P450 2C8 (Homo sapiens, UniProt P10632); assay: Inhibition of CYP2C8; assay type: ADME; details: not given
T3 sequence (P10632 whole entry): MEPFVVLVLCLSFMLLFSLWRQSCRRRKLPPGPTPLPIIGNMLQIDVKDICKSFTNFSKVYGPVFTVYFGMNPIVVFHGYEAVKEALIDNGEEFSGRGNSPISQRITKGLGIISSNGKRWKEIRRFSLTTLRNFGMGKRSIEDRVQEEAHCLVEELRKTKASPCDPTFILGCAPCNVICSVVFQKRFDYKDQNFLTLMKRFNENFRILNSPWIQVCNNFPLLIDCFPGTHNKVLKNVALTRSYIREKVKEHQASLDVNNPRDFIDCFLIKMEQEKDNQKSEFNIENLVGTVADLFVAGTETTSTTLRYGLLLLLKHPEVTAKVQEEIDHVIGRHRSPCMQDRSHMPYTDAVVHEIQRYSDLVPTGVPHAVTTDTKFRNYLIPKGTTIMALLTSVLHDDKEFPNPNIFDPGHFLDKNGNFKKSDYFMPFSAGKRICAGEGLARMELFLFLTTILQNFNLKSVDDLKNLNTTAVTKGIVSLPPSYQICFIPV

With `OCCN1CCN(c2nc(-c3ccncc3)cnc2N2CCCC2)CC1` as the molecule, how does the Activity read?
The Activity was greater than 2 µM.

target: Cytochrome P450 2C19 (Homo sapiens, UniProt P33261); assay: Inhibition of CYP2C19; assay type: ADME; details: not given
Sequence (P33261 whole entry): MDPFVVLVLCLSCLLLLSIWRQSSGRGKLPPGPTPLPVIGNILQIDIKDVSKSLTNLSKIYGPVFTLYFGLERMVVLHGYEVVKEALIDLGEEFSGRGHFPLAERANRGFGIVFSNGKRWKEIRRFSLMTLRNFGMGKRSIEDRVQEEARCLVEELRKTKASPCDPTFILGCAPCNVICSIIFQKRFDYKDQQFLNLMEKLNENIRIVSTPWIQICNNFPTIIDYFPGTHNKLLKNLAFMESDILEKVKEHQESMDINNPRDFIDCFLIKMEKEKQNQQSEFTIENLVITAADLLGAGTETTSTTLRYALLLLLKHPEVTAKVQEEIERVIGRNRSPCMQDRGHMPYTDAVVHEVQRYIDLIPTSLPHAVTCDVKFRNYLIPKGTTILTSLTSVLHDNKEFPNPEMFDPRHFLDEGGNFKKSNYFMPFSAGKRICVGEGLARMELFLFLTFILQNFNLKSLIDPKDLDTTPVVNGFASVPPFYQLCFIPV

For `OCCN1CCN(c2nc(-c3ccncc3)cnc2N2CCCC2)CC1`, which Activity is on record?
Its Activity is greater than 2 µM.

target: Cytochrome P450 2D6 (Homo sapiens, UniProt P10635); assay: Inhibition of CYP2D6; assay type: ADME; details: not given
Sequence (P10635 whole entry): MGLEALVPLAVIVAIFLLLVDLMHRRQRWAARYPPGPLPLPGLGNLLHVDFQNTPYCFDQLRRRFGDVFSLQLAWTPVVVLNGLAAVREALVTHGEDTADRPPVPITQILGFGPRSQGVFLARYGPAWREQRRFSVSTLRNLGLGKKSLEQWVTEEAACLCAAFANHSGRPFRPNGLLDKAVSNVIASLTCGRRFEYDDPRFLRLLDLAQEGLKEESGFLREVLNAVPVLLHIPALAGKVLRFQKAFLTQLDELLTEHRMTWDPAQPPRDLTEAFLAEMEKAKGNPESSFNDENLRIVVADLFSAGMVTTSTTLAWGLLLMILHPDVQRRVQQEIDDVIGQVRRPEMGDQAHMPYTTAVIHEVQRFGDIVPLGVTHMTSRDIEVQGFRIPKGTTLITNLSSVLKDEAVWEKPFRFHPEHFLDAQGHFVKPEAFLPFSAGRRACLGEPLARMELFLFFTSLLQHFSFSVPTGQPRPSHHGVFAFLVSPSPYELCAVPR

With `OCCN1CCN(c2nc(-c3ccncc3)cnc2N2CCCC2)CC1` as the molecule, how does the Activity read?
Its Activity is greater than 2 µM.

target: Cytochrome P450 3A4 (Homo sapiens, UniProt P08684); assay: Inhibition of CYP3A4; assay type: ADME; details: not given
Sequence (P08684 whole entry): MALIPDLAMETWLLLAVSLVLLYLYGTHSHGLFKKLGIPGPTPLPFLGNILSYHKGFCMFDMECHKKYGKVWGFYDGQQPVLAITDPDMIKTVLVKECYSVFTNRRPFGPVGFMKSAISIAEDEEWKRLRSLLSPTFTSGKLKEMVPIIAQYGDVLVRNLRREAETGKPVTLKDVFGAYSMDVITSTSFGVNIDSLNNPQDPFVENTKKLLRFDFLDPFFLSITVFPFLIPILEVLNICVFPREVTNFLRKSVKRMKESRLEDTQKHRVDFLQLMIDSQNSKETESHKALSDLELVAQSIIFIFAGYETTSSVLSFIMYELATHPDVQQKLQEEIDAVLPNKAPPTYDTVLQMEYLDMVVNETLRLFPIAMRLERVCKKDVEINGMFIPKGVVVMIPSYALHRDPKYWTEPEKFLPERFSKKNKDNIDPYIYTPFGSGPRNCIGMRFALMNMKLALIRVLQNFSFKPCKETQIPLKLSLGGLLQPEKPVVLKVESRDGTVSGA

With `OCCN1CCN(c2nc(-c3ccncc3)cnc2N2CCCC2)CC1` as the molecule, how does the Activity read?
The Activity was greater than 2 µM.

tested on: not listed separately; assay: Metabolic stability in human liver microsomes after 1 hr; assay type: ADME, Microsome; details: read-out: Stability

Which remaining at 1 h does the source give for `OCCN1CCN(c2nc(-c3ccncc3)cnc2N2CCCC2)CC1` here?
The remaining at 1 h was 100%.
